Measured values: PubChem BioAssay (NCI)
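Cultured in 96-well plates, cells were exposed to test compound for 48 hours across five concentrations. TGI is the concentration that stops growth completely.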

Tests used:
Test in all cases: DTP human tumour cell line panel, 48 h
[1] = tested on: NCI/ADR-RES ovarian
[2] = tested on: SF-539 CNS
[3] = tested on: MCF7 breast
[4] = tested on: HS 578T breast
[5] = tested on: U251 CNS
[6] = tested on: OVCAR-8 ovarian
[7] = tested on: MALME-3M melanoma
[8] = tested on: PC-3 prostate
[9] = tested on: BT-549 breast
[10] = tested on: OVCAR-4 ovarian
[11] = tested on: SK-OV-3 ovarian
[12] = tested on: NCI-H23 lung
[13] = tested on: A549 NSCLC
[14] = tested on: SF-268 CNS
[15] = tested on: COLO 205 colon
[16] = tested on: SNB-19 CNS
[17] = tested on: HL-60(TB) leukemia
[18] = tested on: SNB-75 CNS
[19] = tested on: CCRF-CEM leukemia
[20] = tested on: HCT-15 colon
[21] = tested on: HOP-62 NSCLC
[22] = tested on: KM12 colon
[23] = tested on: K-562 leukemia
[24] = tested on: NCI-H460 lung
[25] = tested on: OVCAR-5 ovarian
[26] = tested on: UACC-257 melanoma
[27] = tested on: RXF 393 renal
[28] = tested on: UACC-62 melanoma
[29] = tested on: IGROV1 ovarian
[30] = tested on: HOP-92 NSCLC
[31] = tested on: TK-10 renal
[32] = tested on: ACHN renal
[33] = tested on: HT29 colon
[34] = tested on: CAKI-1 renal
[35] = tested on: DU-145 prostate
[36] = tested on: LOX IMVI melanoma
[37] = tested on: OVCAR-3 ovarian
[38] = tested on: A498 renal
[39] = tested on: M14 melanoma
[40] = tested on: SK-MEL-2 melanoma
[41] = tested on: SF-295 CNS
[42] = tested on: HCT-116 colon
[43] = tested on: MDA-MB-435
[44] = tested on: UO-31 renal
[45] = tested on: SN12C renal
[46] = tested on: MDA-MB-231 breast
[47] = tested on: NCI-H522 lung
[48] = tested on: EKVX NSCLC
[49] = tested on: MDA-N
[50] = tested on: HCC-2998 colon
[51] = tested on: T-47D breast
[52] = tested on: NCI-H226 lung
[53] = tested on: MOLT-4 leukemia
[54] = tested on: SR leukemia
[55] = tested on: SK-MEL-5 melanoma
[56] = tested on: RPMI-8226 leukemia
[57] = tested on: 786-0 renal
[58] = tested on: SK-MEL-28 melanoma
[59] = tested on: SW-620 colon

Cc1cc(C)c(S(=O)(=O)N(CCCCCCN)OCCCON(CCCCCCN)S(=O)(=O)c2c(C)cc(C)cc2C)c(C)c1 was tested, and the TGI [1] was 34.6 µM, the TGI [2] was 3.98 µM and the TGI [3] was 3.66 µM. For the same compound, the TGI [4] was 4.32 µM, the TGI [5] was 3.15 µM and the TGI [6] was 3.34 µM. It also gave a TGI [7] of 3.66 µM, a TGI [8] of 3.15 µM and a TGI [9] of 3.26 µM. It also gave a TGI [10] of 3.38 µM, a TGI [11] of 3.37 µM and a TGI [12] of 3.11 µM. The TGI [13] was 3.24 µM, the TGI [14] was 3.42 µM and the TGI [15] was 3.76 µM. It also gave a TGI [16] of 3.01 µM, a TGI [17] of over 100 µM and a TGI [18] of 3.17 µM. For the same compound, the TGI [19] was over 100 µM, the TGI [20] was 3.6 µM and the TGI [21] was 3.6 µM. For the same compound, the TGI [22] was 4.35 µM, the TGI [23] was over 100 µM and the TGI [24] was 3.07 µM. For the same compound, the TGI [25] was 2.72 µM, the TGI [26] was 3.27 µM and the TGI [27] was 3.18 µM. It also gave a TGI [28] of 3.15 µM, a TGI [29] of 3.22 µM and a TGI [30] of 2.96 µM. It also gave a TGI [31] of 3.07 µM, a TGI [32] of 13.1 µM and a TGI [33] of 3.05 µM. It also gave a TGI [34] of 3.7 µM, a TGI [35] of 2.76 µM and a TGI [36] of 3.19 µM. For the same compound, the TGI [37] was 3.34 µM, the TGI [38] was 3.02 µM and the TGI [39] was 3.03 µM. It also gave a TGI [40] of 3.48 µM, a TGI [41] of 3.41 µM and a TGI [42] of 3.08 µM. For the same compound, the TGI [43] was 3.99 µM, the TGI [44] was 4.04 µM and the TGI [45] was 3.89 µM. It also gave a TGI [46] of 3.21 µM, a TGI [47] of 3.27 µM and a TGI [48] of 3.19 µM. The TGI [49] was 3.61 µM.

O=C1NC(=S)NC1C(Cc1ccccc1)c1ccco1 (configuration not stated) was tested, and the TGI [1] was over 100 µM, the TGI [2] was over 100 µM and the TGI [3] was over 100 µM. For the same compound, the TGI [4] was over 100 µM, the TGI [5] was over 100 µM and the TGI [6] was over 100 µM. It also gave a TGI [7] of over 100 µM, a TGI [10] of over 100 µM and a TGI [50] of over 100 µM. It also gave a TGI [51] of over 100 µM, a TGI [11] of over 100 µM and a TGI [12] of over 100 µM. It also gave a TGI [13] of over 100 µM, a TGI [14] of over 100 µM and a TGI [15] of over 100 µM. For the same compound, the TGI [16] was over 100 µM, the TGI [17] was over 100 µM and the TGI [18] was over 100 µM. It also gave a TGI [52] of over 100 µM, a TGI [19] of over 100 µM and a TGI [20] of over 100 µM. For the same compound, the TGI [22] was over 100 µM, the TGI [23] was over 100 µM and the TGI [24] was over 100 µM. The TGI [25] was over 100 µM, the TGI [26] was over 100 µM and the TGI [27] was over 100 µM. The TGI [29] was over 100 µM, the TGI [30] was over 100 µM and the TGI [53] was over 100 µM. For the same compound, the TGI [54] was over 100 µM, the TGI [31] was over 100 µM and the TGI [55] was over 100 µM. For the same compound, the TGI [32] was over 100 µM, the TGI [33] was over 100 µM and the TGI [34] was over 100 µM. It also gave a TGI [35] of over 100 µM, a TGI [36] of over 100 µM and a TGI [38] of over 100 µM. The TGI [56] was over 100 µM, the TGI [39] was over 100 µM and the TGI [41] was over 100 µM. It also gave a TGI [42] of over 100 µM, a TGI [57] of over 100 µM and a TGI [43] of over 100 µM. For the same compound, the TGI [58] was over 100 µM, the TGI [44] was over 100 µM and the TGI [45] was over 100 µM. It also gave a TGI [59] of over 100 µM, a TGI [46] of over 100 µM and a TGI [47] of over 100 µM. It also gave a TGI [48] of over 100 µM and a TGI [49] of over 100 µM.
